No end group written: not given here.
Key:
[1] = target: T1, human GIP receptor (Homo sapiens, UniProt P48546); test: cAMP accumulation assay (agonism, antagonism, Schild analysis), COS-7 cells transfected with human GIP receptor (Example 7); assay type: cell-based; conditions: for Slope of Schild plot: GIP(1-42) dose-response curves with fixed antagonist concentrations
T1 construct: host or cells: COS-7 cells, transient transfection (calcium phosphate precipitation), pCMV-Script vector
T1 sequence (P48546 22-466): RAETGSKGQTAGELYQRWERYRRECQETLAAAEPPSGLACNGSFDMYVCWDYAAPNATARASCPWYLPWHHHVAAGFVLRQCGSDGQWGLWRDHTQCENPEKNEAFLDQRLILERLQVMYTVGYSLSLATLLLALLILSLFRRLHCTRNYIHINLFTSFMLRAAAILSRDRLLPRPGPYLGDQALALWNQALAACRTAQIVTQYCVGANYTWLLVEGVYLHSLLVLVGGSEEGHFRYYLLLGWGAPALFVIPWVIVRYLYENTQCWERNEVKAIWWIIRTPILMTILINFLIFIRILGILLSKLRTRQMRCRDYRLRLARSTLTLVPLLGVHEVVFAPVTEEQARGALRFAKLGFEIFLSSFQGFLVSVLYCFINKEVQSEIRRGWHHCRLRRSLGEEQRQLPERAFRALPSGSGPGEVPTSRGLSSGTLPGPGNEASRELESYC
Description: COS-7 cells were grown in 10% CO2 and at 37° C. in Dulbecco's modified Eagle's medium 1885 supplemented with 10% fetal bovine serum, 2 mM glutamine, 180 units/ml penicillin, and 45 µg/ml streptomycin. Transfection of COS-7 cells was performed using the calcium phosphate precipitation method with chloroquine addition as previously described (Kissow et al., 2012).
Two days after transfection the cells were washed once with HEPES buffered saline (HBS) and incubated with HBS and 0.5 mM 3-isobutyl-1-methylxanthine (IBMX) for 30 minutes at 37° C. […] After ligand incubation, the HitHunter™ cAMP XS assay (an enzyme fragment complementation-based assay, DiscoveRx, Birmingham, United Kingdom) was carried out according to the manufacturer's instructions. All experiments were made in duplicates, and repeated at least three times. Luminescence was measured by Perkin Elmer™ EnVision 2104 Multilabled reader (Skovlunde, Danmark). In brief, the cells were lysed in the wells, the enzyme fragment-cAMP-antibody, an enzyme fragment and the enzyme substrates were added followed by 1 hour incubation at room temperature on shaker tray. The other enzyme fragment was added to the wells and incubated for 4 hours on shaker tray followed by measurements of luminescence. The ligand-induced cAMP competed with the binding of antibody to the first enzyme fragment and left the two fragments to fuse. The enzyme complex hydrolyzed the substrates and yielded luminescence. The number “n” refers to individual experiments with separate transfections although from same cell line.
IC50, EC50, and Kd/Ki values were determined by nonlinear regression. These, as well as maximal binding capacity (Bmax) values and Schild plot analysis were carried out with the GraphPad Prism 6.0 software (GraphPad, San Diego, Calif., USA) and Microsoft Excel™. Statistical analyses (unpaired t-tests) of two parameters were also performed with GraphPad Prism 6.0. The calculations of Bmax and Ki values were based on the formula for one class of binding sites in homologous competition binding studies and the Cheng Prussoffs formula, respectively (DeBlasi et al., 1989). Kd is the dissociation constant determined by homologous receptor binding. […] Schild plots were performed with log (DR-1) (ordinate) and log(antagonist concentration) (abscissa) to estimate the slopes and Ki values (Lazareno and Birdsall, 1993).

[2] = target: T1, human GIP receptor; test: Competitive binding assay with 125I-labelled GIP radioligands, COS-7 cells transfected with human GIP receptor (Example 7); conditions: for fold change GIP(1-30)NH2 / Competitive binding fold (fold change of GIP(1-30)NH2 affinity): relative to GIP(1-30)NH2; for Competitive binding fold (fold change of GIP(1-30)NH2 affinity): radioligand 125I-GIP(1-42)
Description: Transfection of COS-7 cells was performed using the calcium phosphate precipitation method with chloroquine addition as previously described (Kissow et al., 2012). […] Nonspecific binding was determined as the binding of radioligand to untransfected cells. All determinations were made in duplicates, and all experiments repeated at least three times. The samples were analyzed for radioactivity using a Wallac Wizard 1470 Gamma Counter (GMI Inc., Minnesota, USA). The number “n” refers to individual experiments with separate transfections although from same cell line. IC50, EC50, and Kd/Ki values were determined by nonlinear regression. […] Statistical analyses (unpaired t-tests) of two parameters were also performed with GraphPad Prism 6.0. The calculations of Bmax and Ki values were based on the formula for one class of binding sites in homologous competition binding studies and the Cheng Prussoffs formula, respectively (DeBlasi et al., 1989). Kd is the dissociation constant determined by homologous receptor binding. […] Schild plots were performed with log (DR-1) (ordinate) and log(antagonist concentration) (abscissa) to estimate the slopes and Ki values (Lazareno and Birdsall, 1993).

[3] = inhibition of GIP(1-42) at 50-80% of max receptor activation

## CC[C@H](C)[C@H](NC(=O)[C@H](CO)NC(=O)[C@H](Cc1ccc(O)cc1)NC(=O)[C@H](CC(=O)O)NC(=O)[C@H](CO)NC(=O)[C@@H](NC(=O)[C@H](Cc1ccccc1)NC(=O)[C@@H](NC(=O)CNC(=O)[C@H](CCC(=O)O)NC(=O)[C@H](C)NC(=O)[C@@H](N)Cc1ccc(O)cc1)[C@@H](C)O)[C@@H](C)CC)C(=O)N[C@@H](C)C(=O)N[C@@H](CCSC)C(=O)N[C@@H](CC(=O)O)C(=O)N[C@@H](CCCCN)C(=O)N[C@H](C(=O)N[C@@H](Cc1c[nH]cn1)C(=O)N[C@@H](CCC(N)=O)C(=O)N[C@@H](CCC(N)=O)C(=O)N[C@@H](CC(=O)O)C(=O)N[C@@H](Cc1ccccc1)C(=O)N[C@H](C(=O)N[C@@H](CC(N)=O)C(=O)N[C@@H](Cc1c[nH]c2ccccc12)C(=O)N[C@@H](CC(C)C)C(=O)N[C@@H](CC(C)C)C(=O)N[C@@H](C)C(=O)N[C@@H](CCC(N)=O)C(=O)N[C@@H](CCCCN)C(N)=O)C(C)C)[C@@H](C)CC [GIP(1-30)NH2, reference compound]
[1]; agonist mode
  Intrinsic agonistic activity in cAMP accumulation: full agonist

## CC[C@H](C)[C@H](NC(=O)[C@H](CO)NC(=O)[C@H](Cc1ccc(O)cc1)NC(=O)[C@H](CC(=O)O)NC(=O)[C@H](CO)NC(=O)[C@@H](NC(=O)[C@H](Cc1ccccc1)NC(=O)[C@@H](NC(=O)CNC(=O)[C@H](CCC(=O)O)NC(=O)[C@H](C)N)[C@@H](C)O)[C@@H](C)CC)C(=O)N[C@@H](C)C(=O)N[C@@H](CCSC)C(=O)N[C@@H](CC(=O)O)C(=O)N[C@@H](CCCCN)C(=O)N[C@H](C(=O)N[C@@H](Cc1c[nH]cn1)C(=O)N[C@@H](CCC(N)=O)C(=O)N[C@@H](CCC(N)=O)C(=O)N[C@@H](CC(=O)O)C(=O)N[C@@H](Cc1ccccc1)C(=O)N[C@H](C(=O)N[C@@H](CC(N)=O)C(=O)N[C@@H](Cc1c[nH]c2ccccc12)C(=O)N[C@@H](CC(C)C)C(=O)N[C@@H](CC(C)C)C(=O)N[C@@H](C)C(=O)N[C@@H](CCC(N)=O)C(=O)N[C@@H](CCCCN)C(N)=O)C(C)C)[C@@H](C)CC [GIP(2-30)NH2]
[2]; radioligand 125I-GIP(1-30)NH2
  IC50: 26 nM
  fold change GIP(1-30)NH2: 84.3 fold
[2]
  Competitive binding fold (fold change of GIP(1-30)NH2 affinity): 16 fold
[2]; radioligand 125I-GIP(2-30)NH2
  IC50: 2.7 nM
  fold change GIP(1-30)NH2: 10.5 fold
[2]; radioligand 125I-GIP(3-30)NH2
  IC50: 7.7 nM
  fold change GIP(1-30)NH2: 4.6 fold
[1]
  Slope of Schild plot: 0.49±0.14
[1]; agonist mode
  Fold lower agonist potency than GIP(1-30)NH2: > 3000 fold
  Intrinsic agonistic activity in cAMP accumulation: weak partial agonist
[1]; agonist mode, given with negative sign
  log EC50, cAMP accumulation: −8.43±0.33
[1]; [3]
  IC50: 21.7 nM

## CC[C@H](C)[C@H](NC(=O)[C@H](CO)NC(=O)[C@H](Cc1ccc(O)cc1)NC(=O)[C@H](CC(=O)O)NC(=O)[C@H](CO)NC(=O)[C@@H](NC(=O)[C@H](Cc1ccccc1)NC(=O)[C@@H](NC(=O)CN)[C@@H](C)O)[C@@H](C)CC)C(=O)N[C@@H](C)C(=O)N[C@@H](CCSC)C(=O)N[C@@H](CC(=O)O)C(=O)N[C@@H](CCCCN)C(=O)N[C@H](C(=O)N[C@@H](Cc1c[nH]cn1)C(=O)N[C@@H](CCC(N)=O)C(=O)N[C@@H](CCC(N)=O)C(=O)N[C@@H](CC(=O)O)C(=O)N[C@@H](Cc1ccccc1)C(=O)N[C@H](C(=O)N[C@@H](CC(N)=O)C(=O)N[C@@H](Cc1c[nH]c2ccccc12)C(=O)N[C@@H](CC(C)C)C(=O)N[C@@H](CC(C)C)C(=O)N[C@@H](C)C(=O)N[C@@H](CCC(N)=O)C(=O)N[C@@H](CCCCN)C(N)=O)C(C)C)[C@@H](C)CC [GIP(4-30)NH2]
[2]
  Competitive binding fold (fold change of GIP(1-30)NH2 affinity): 24 fold
[1]
  Slope of Schild plot: 0.75±0.02
[1]; [3]
  IC50: 108 nM

## CC[C@H](C)[C@H](N)C(=O)N[C@@H](CO)C(=O)N[C@@H](CC(=O)O)C(=O)N[C@@H](Cc1ccc(O)cc1)C(=O)N[C@@H](CO)C(=O)N[C@H](C(=O)N[C@@H](C)C(=O)N[C@@H](CCSC)C(=O)N[C@@H](CC(=O)O)C(=O)N[C@@H](CCCCN)C(=O)N[C@H](C(=O)N[C@@H](Cc1c[nH]cn1)C(=O)N[C@@H](CCC(N)=O)C(=O)N[C@@H](CCC(N)=O)C(=O)N[C@@H](CC(=O)O)C(=O)N[C@@H](Cc1ccccc1)C(=O)N[C@H](C(=O)N[C@@H](CC(N)=O)C(=O)N[C@@H](Cc1c[nH]c2ccccc12)C(=O)N[C@@H](CC(C)C)C(=O)N[C@@H](CC(C)C)C(=O)N[C@@H](C)C(=O)N[C@@H](CCC(N)=O)C(=O)N[C@@H](CCCCN)C(N)=O)C(C)C)[C@@H](C)CC)[C@@H](C)CC [GIP(7-30)NH2, reference compound]
[1]
  Slope of Schild plot: 0.17±0.03
[1]; [3]
  IC50: 137 nM

## CC[C@H](C)[C@H](NC(=O)[C@H](CO)NC(=O)[C@H](Cc1ccc(O)cc1)NC(=O)[C@H](CC(=O)O)NC(=O)[C@H](CO)NC(=O)[C@@H](NC(=O)[C@H](Cc1ccccc1)NC(=O)[C@@H](NC(=O)CNC(=O)[C@@H](N)CCC(=O)O)[C@@H](C)O)[C@@H](C)CC)C(=O)N[C@@H](C)C(=O)N[C@@H](CCSC)C(=O)N[C@@H](CC(=O)O)C(=O)N[C@@H](CCCCN)C(=O)N[C@H](C(=O)N[C@@H](Cc1c[nH]cn1)C(=O)N[C@@H](CCC(N)=O)C(=O)N[C@@H](CCC(N)=O)C(=O)N[C@@H](CC(=O)O)C(=O)N[C@@H](Cc1ccccc1)C(=O)N[C@H](C(=O)N[C@@H](CC(N)=O)C(=O)N[C@@H](Cc1c[nH]c2ccccc12)C(=O)N[C@@H](CC(C)C)C(=O)N[C@@H](CC(C)C)C(=O)N[C@@H](C)C(=O)N[C@@H](CCC(N)=O)C(=O)N[C@@H](CCCCN)C(N)=O)C(C)C)[C@@H](C)CC [hGIP(3-30)]
[1]; 1 μM antagonist
  Fold shift in the dose-response curve of human GIP(1-42): 281 fold

## DYSIAMDKIHQQDFVNWLLAQK-NH2 [GIP(9-30)NH2]
[1]; inhibition of GIP(1-42) at 50-80% of max receptor activation, given with negative sign
  cAMP accumulation logIC50 ± SEM (antagonism): −6.35 ± 0.6
[1]; inhibition of submaximal GIP(1-42) activation
  Fold lower antagonistic potency (right-shift) compared to GIP(3-30)NH2: 38 fold

## porcine GIP(3-42): Porcine GIP(3-42), arginine in position 18 and serine in position 34; custom synthesized by PolyPeptide Laboratories (EGTFISDYSIAMDKIRQQDFVNWLLAQKGKKSDWKHNITQ) [reference compound]
[1]
  Antagonism of GIP(1-42)-induced cAMP response (in words): higher potency compared to human GIP (3-42), yet not as high as human GIP(3-30)NH2
[1]; agonist mode
  Intrinsic agonistic activity in cAMP accumulation: neither of the GIP(3-42) variants had any intrinsic agonistic activity

From patent US10968266B2, “GIP peptide analogues” (University of Copenhagen, priority 2014, dated 2021)
